PubChem BioAssay AID2060893 (Molecular Pharmacology Branch, DTP, NCI, 2025)
“And” between values parts separate entries of the source, which are not always exact repeats. Equal entries are not always repeated. Each block holds one compound with its values, some of them ahead of it.

System: K86415-001-R-J1-PDC complex spheroids, viability
Test: Anticancer human tumor K86415-001-R-J1-PDC patient-derived lung adenocarcinoma cell line growth inhibition [RAS]
Conditions: for viability, T/C: stronger effect = lower value
Excerpt: RAS pathway inhibitors in Combinations in Complex Spheroids
A high-throughput screen of multi-cell type tumor spheroids was designed to identify active combinations of RAS pathway inhibitors and targeted small molecules. Complex spheroids include a stromal component modeled by human endothelial cells (HUVEC) and fibroblasts modeled by human mesenchymal stem cells (MSCs). The concentration ranges selected for each drug and investigational agent were based upon clinically achievable concentrations if the clinical Cmax of the agent was known.
Compounds. The drugs and investigational agents: abemaciclib (NSC768073), cobimetinib (NSC768068), divarasib (GDC6063, NSC841802), docetaxel (NSC628503), GDC-1971 (RLY-1971, NSC841576), gemcitabine (NSC613327), inavolisib (NSC800729), ipatasertib (NSC767898), KB-0742 (NSC834161), MRTX-1133 (NSC836407), osimertinib (NSC779217), RMC-4630 (NSC839698), RMC-6236 (NSC851965), RMC-6291 (NSC852671), Ro-3306 (NSC812927), sapanisertib (NSC764658), SN-38 (NSC673596), staurosporine (NSC755774), SY5609 (NSC837396), and tovorafenib (DAY101, NSC766906), were obtained from the National Cancer Institute (NCI) Developmental Therapeutics Program Chemical Repository. The FDA-approved anticancer drug set is available from the NCI Developmental Therapeutics Program. […] The stock solutions were prepared in dimethyl sulfoxide (DMSO, Sigma-Aldrich, St. Louis, MO, cat. D2650) at 800-fold the tested concentration and stored at -70 degrees C prior to their use. All drugs and investigational agents were tested over a range starting from a high concentration at or near the clinical Cmax and decreasing in half-log increments. If the clinical Cmax for an agent had not been determined, the highest concentration tested was 10 microM.
Cell Culture. All cells were maintained in an incubator at 37 degrees C and 5% CO2 with 95% humidity. The PDC lines were cultured according to standard operating procedures established by the NCI PDMR. All PDCs were thawed and cultured in Matrigel-coated flasks prepared with a working solution of 1X Ham's F-12 nutrient mix, without supplementation (Invitrogen, Waltham, MA, cat. 11765054), 100 U/mL penicillin-streptomycin (Invitrogen, cat. 15140122), and 2.5% Matrigel (Corning Inc., Corning, NY, cat. 354248) for the first three passages. The 362531-283-R-J2-PDC and 782815-120-R-J1-PDC lines were cultured in 6C/Colon 1B media, which includes advanced DMEM/F-12 (Thermo Fisher Scientific, cat. 12634028), 10 mM HEPES (Thermo Fisher Scientific, cat. 15630080), 1X GlutaMAX supplement (Thermo Fisher Scientific, cat. 35050061), 0.1 mg/mL primocin (InvivoGen, San Diego, CA, cat. ant-pm-2), 10% defined fetal bovine serum, heat inactivated (HyClone Laboratories Inc., Logan, UT, cat. SH30070.03HI), 50% L-WRN conditioned media (ATCC, cat. CRL-3276), 1.25 mM N-Acetyl-L-cysteine (Sigma-Aldrich, cat. A9165), 10 mM nicotinamide (Sigma-Aldrich, cat. N0636), 1X B-27 supplement (Thermo Fisher Scientific, cat. 17504044), 1X N-2 supplement (Thermo Fisher Scientific, cat. 17502048), 50 ng/mL human EGF (Thermo Fisher Scientific, cat. PHG0311), and 10 microM Y-27632 dihydrochloride (Tocris Bioscience, cat. 1254). The K12877-001-R-J1-PDC line was cultured in 6I media, which includes all 6C/Colon 1B media plus 10 ng/mL human FGF-10 (PeproTech, cat. 100-26), 1 ng/mL human FGF-2 (PeproTech, cat. 100-18B), 1 µM prostaglandin E2 (Tocris Bioscience, cat. 2296), […] hydrocortisone (Sigma-Aldrich, cat. H4001), and […] bovine insulin (Sigma-Aldrich, cat. I6634). The K86415-001-R-J1-PDC line was cultured in 6D media, which includes all 6C/Colon 1B media components minus the L-WRN conditioned media. The 485176-168-R4-J1-PDC was cultured in PANC media, which includes all 6C/Colon 1B media plus 100 ng/mL human FGF-10 (PeproTech, cat. 100-26), 500 nM SB-431542 (Selleckchem, cat. S1067), and 10 nM gastrin (Tocris Bioscience, cat. 3006). […]

[1] = curve of first compound, second compound 0.0316 µM
[2] = curve of first compound, second compound 0.1 µM
[3] = curve of first compound, second compound 0.316 µM
[4] = curve of first compound, second compound 1 µM
[5] = curve of first compound, second compound 3.16 µM
[6] = curve of first compound, second compound 10 µM
[7] = second compound 0.0316 µM, first compound 0.00316 µM
[8] = second compound 0.0316 µM, first compound 0.01 µM
[9] = second compound 0.0316 µM, first compound 0.0316 µM
[10] = second compound 0.0316 µM, first compound 0.1 µM
[11] = second compound 0.0316 µM, first compound 0.316 µM
[12] = second compound 0.0316 µM, first compound 1 µM
[13] = second compound 0.1 µM, first compound 0.00316 µM
[14] = second compound 0.1 µM, first compound 0.01 µM
[15] = second compound 0.1 µM, first compound 0.0316 µM
[16] = second compound 0.1 µM, first compound 0.1 µM
[17] = second compound 0.1 µM, first compound 0.316 µM
[18] = second compound 0.1 µM, first compound 1 µM
[19] = second compound 0.316 µM, first compound 0.00316 µM
[20] = second compound 0.316 µM, first compound 0.01 µM
[21] = second compound 0.316 µM, first compound 0.0316 µM
[22] = second compound 0.316 µM, first compound 0.1 µM
[23] = second compound 0.316 µM, first compound 0.316 µM
[24] = second compound 0.316 µM, first compound 1 µM
[25] = second compound 1 µM, first compound 0.00316 µM
[26] = second compound 1 µM, first compound 0.01 µM
[27] = second compound 1 µM, first compound 0.0316 µM
[28] = second compound 1 µM, first compound 0.1 µM
[29] = second compound 1 µM, first compound 0.316 µM
[30] = second compound 1 µM, first compound 1 µM
[31] = second compound 3.16 µM, first compound 0.00316 µM
[32] = second compound 3.16 µM, first compound 0.01 µM
[33] = second compound 3.16 µM, first compound 0.0316 µM
[34] = second compound 3.16 µM, first compound 0.1 µM
[35] = second compound 3.16 µM, first compound 0.316 µM
[36] = second compound 3.16 µM, first compound 1 µM
[37] = second compound 10 µM, first compound 0.00316 µM
[38] = second compound 10 µM, first compound 0.01 µM
[39] = second compound 10 µM, first compound 0.0316 µM
[40] = second compound 10 µM, first compound 0.1 µM
[41] = second compound 10 µM, first compound 0.316 µM
[42] = second compound 10 µM, first compound 1 µM
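Note: spheroids exposed to agents for seven days before readout.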

IC50 (curve of compound): < 0.0316 µM
SMILES: CC(=O)OC12COC1CC(O)C1(C)C(=O)C(O)C3=C(C)C(OC(=O)C(O)C(NC(=O)OC(C)(C)C)c4ccccc4)CC(O)(C(OC(=O)c4ccccc4)C21)C3(C)C (configuration not stated)
viability, T/C (compound 0.0316 µM): 32.8% [middle of 4 runs] | viability, T/C (compound 0.1 µM): 30.1% [middle of 4 runs] | viability, T/C (compound 0.316 µM): 31% [middle of 4 runs] | viability, T/C (compound 1 µM): 34.2% [middle of 4 runs] | viability, T/C (compound 3.16 µM): 36.2% [middle of 4 runs] | viability, T/C (compound 10 µM): 32.1% [middle of 4 runs]

IC50 (curve of compound): 1.82 µM [middle of 4 runs]
SMILES: CCC(CC)c1cc(NC2CCC(N)C2)n2nccc2n1 (configuration not stated)
viability, T/C (compound 0.0316 µM): 106% and 116% (2×) and 92.8% | viability, T/C (compound 0.1 µM): 115% [middle of 4 runs] | viability, T/C (compound 0.316 µM): 122% [middle of 4 runs] | viability, T/C (compound 1 µM): 100% [middle of 4 runs] | viability, T/C (compound 3.16 µM): 3.47% [middle of 4 runs] | viability, T/C (compound 10 µM): 3.37% [middle of 4 runs]

IC50 (curve of compound): 122 nM [middle of 4 runs]
SMILES: Cc1nc(N2CCC3(CC2)COC(C)C3N)c(CO)nc1Sc1ccnc(N)c1Cl (configuration not stated)
viability, T/C (compound 0.0316 µM): 76.3% [middle of 4 runs] | viability, T/C (compound 0.1 µM): 53.6% [middle of 4 runs] | viability, T/C (compound 0.316 µM): 36.6% [middle of 4 runs] | viability, T/C (compound 1 µM): 27.2% [middle of 4 runs] | viability, T/C (compound 3.16 µM): 24.6% [middle of 4 runs] | viability, T/C (compound 10 µM): 20.1% [middle of 4 runs]

IC50 (curve of compound): < 0.0316 µM
SMILES: NC1c2ccccc2OC12CCN(c1cnc3c(N4CCCc5ncccc54)n[nH]c3n1)CC2 (configuration not stated)
viability, T/C (compound 0.0316 µM): 46.3% [middle of 4 runs] | viability, T/C (compound 0.1 µM): 29.9% [middle of 4 runs] | viability, T/C (compound 0.316 µM): 22.7% [middle of 4 runs] | viability, T/C (compound 1 µM): 19.7% and 20.6% and 16.5% | viability, T/C (compound 3.16 µM): 21% [middle of 4 runs] | viability, T/C (compound 10 µM): 23.1% [middle of 4 runs]

IC50 [1]: 0.493 µM | IC50 [2]: 0.287 µM | IC50 [3]: 0.191 µM | IC50 [4]: 0.0423 µM | IC50 [5]: < 0.00316 µM | IC50 [6]: < 0.00316 µM
SMILES: C=CC(=O)Nc1cc(Nc2nccc(-c3cn(C)c4ccccc34)n2)c(OC)cc1N(C)CCN(C)C + C#Cc1c(F)ccc2cc(O)cc(-c3ncc4c(N5CC6CCC(C5)N6)nc(OCC56CCCN5CC(F)C6)nc4c3F)c12
viability, T/C [7]: 95.1% | viability, T/C [8]: 99.4% | viability, T/C [9]: 88.3% | viability, T/C [10]: 73.1% | viability, T/C [11]: 58.4% | viability, T/C [12]: 38.9% | viability, T/C [13]: 84.5% | viability, T/C [14]: 99.3% | viability, T/C [15]: 88.1% | viability, T/C [16]: 67.7% | viability, T/C [17]: 50.8% | viability, T/C [18]: 31.2% | viability, T/C [19]: 87.8% | viability, T/C [20]: 92.3% | viability, T/C [21]: 72.3% | viability, T/C [22]: 56.1% | viability, T/C [23]: 46.1% | viability, T/C [24]: 21.8% | viability, T/C [25]: 61.1% | viability, T/C [26]: 59.2% | viability, T/C [27]: 52.9% | viability, T/C [28]: 40.8% | viability, T/C [29]: 24.2% | viability, T/C [30]: 14.4% | viability, T/C [31]: 32.3% | viability, T/C [32]: 33.8% | viability, T/C [33]: 27.2% | viability, T/C [34]: 20.4% | viability, T/C [35]: 13.6% | viability, T/C [36]: 9.53% | viability, T/C [37]: 30.3% | viability, T/C [38]: 16.9% | viability, T/C [39]: 13.9% | viability, T/C [40]: 10.1% | viability, T/C [41]: 10.4% | viability, T/C [42]: 7%

IC50 [1]: 0.0642 µM | IC50 [2]: 0.056 µM | IC50 [3]: 0.0382 µM | IC50 [4]: 0.0125 µM | IC50 [5]: < 0.00316 µM | IC50 [6]: < 0.00316 µM
SMILES: O=C(c1ccc(F)c(F)c1Nc1ccc(I)cc1F)N1CC(O)([C@@H]2CCCCN2)C1 + C#Cc1c(F)ccc2cc(O)cc(-c3ncc4c(N5CC6CCC(C5)N6)nc(OCC56CCCN5CC(F)C6)nc4c3F)c12
viability, T/C [7]: 89% | viability, T/C [8]: 83.5% | viability, T/C [9]: 67.7% | viability, T/C [10]: 38% | viability, T/C [11]: 19.8% | viability, T/C [12]: 8.49% | viability, T/C [13]: 88.1% | viability, T/C [14]: 79.9% | viability, T/C [15]: 61.3% | viability, T/C [16]: 37% | viability, T/C [17]: 22.2% | viability, T/C [18]: 8.46% | viability, T/C [19]: 74.5% | viability, T/C [20]: 74.5% | viability, T/C [21]: 52.2% | viability, T/C [22]: 29.2% | viability, T/C [23]: 17.2% | viability, T/C [24]: 8.24% | viability, T/C [25]: 61.2% | viability, T/C [26]: 54.9% | viability, T/C [27]: 35.9% | viability, T/C [28]: 22% | viability, T/C [29]: 12.4% | viability, T/C [30]: 5.88% | viability, T/C [31]: 28.6% | viability, T/C [32]: 32% | viability, T/C [33]: 20.6% | viability, T/C [34]: 13.8% | viability, T/C [35]: 8.69% | viability, T/C [36]: 3.9% | viability, T/C [37]: 14.4% | viability, T/C [38]: 13.1% | viability, T/C [39]: 9.68% | viability, T/C [40]: 7.57% | viability, T/C [41]: 4.87% | viability, T/C [42]: 3%
